The structures appear in SMILES notation. Read-outs that look alike come from different tables or passages of the source. A value given as a limit tells only on which side of the number the result lay.

Our source for the IC50 values is patent EP1801112A1, “Bicyclic pyrimidines and bicyclic 3,4-dihydropyrimidines as inhibitors of cellular proliferation” (Warner-Lambert Company LLC, priority 1998, dated 1999).

Common to all, as to type: biochemical
For assay [1], the target named is T1, c-Src (Homo sapiens, UniProt P12931).
T1 construct: made in house; host or cells: baculovirus infected insect cells
Description: c-Src protein kinase assay. Conditions: poly GluTyr substrate, 5 µM ATP. The method, then:
The assay was carried out as follows: c-Src kinase was purified from baculovirus infected insect cell lysates using an antipeptide monoclonal antibody directed against the N-terminal amino acids (amino acids 2-17) of c-Src. The antibody, covalently linked to 0.65 µm latex beads, was added to a suspension of insect cell lysis buffer comprised of 150 mM NaCl, 50 mM Tris pH 7.5, 1 mM DTT, 1% NP-40, 2 mM EGTA, 1 mM sodium vanadate, 1 mM PMSF, 1 µg/mL each of leupeptin, pepstatin, and aprotinin. Insect cell lysate containing c-Src protein was incubated with these beads for 3 to 4 hours at 4°C with rotation. At the end of the lysate incubation, the beads were rinsed three times in lysis buffer, resuspended in lysis buffer containing 10% glycerol, and frozen. These latex beads were thawed, rinsed three times in assay buffer (40 mM Tris, pH 7.5, […]) and suspended in the same buffer. In a Millipore 96-well plate with a 0.65 µm polyvinylidine membrane bottom were added the reaction components: 10 µL c-Src beads, 10 µL of 2.5 mg/mL poly GluTyr substrate, 5 µM ATP containing 0.2 µCi labeled ^32P-ATP, 5 µL DMSO containing inhibitors or as a solvent control, and buffer to make the final volume 125 µL. The reaction was started at room temperature by addition of the ATP and quenched 10 minutes later by the addition of 125 µL of 30% TCA, 0.1 M sodium pyrophosphate for 5 minutes on ice. […] The filters were then punched, counted in a liquid scintillation counter, and the data examined for inhibitory activity in comparison to a known inhibitor such as erbstatin. […]

Assay [2] addresses cdk2/cyclinE (Homo sapiens, UniProt P24941). Description: Cyclin-Dependent Kinase Assay cdk2/cyclinE. The method, then:
(§1) Cyclin-Dependent Kinase Assays (cdk2/cyclinE, cdk2/cyclinA, cdc2/cyclinB)
(§2) All components except the ATP were added to the wells, and the plate was placed on a plate mixer for 2 minutes. The reaction was begun by addition of [^32P]ATP, and the plate was incubated at 25°C for 15 minutes. The reaction was terminated by addition of 0.1 mL of 20% TCA. The plate was kept at 4°C for at least 1 hour to allow the substrate to precipitate. The wells were then washed five times with 0.2 mL of 10% TCA and ^32P incorporation determined with a beta plate counter (Wallac Inc., Gaithersburg, MD).

Assay [3] has as its target T2, PDGF-β receptor tyrosine kinase (Mus musculus, UniProt P05622).
T2 construct: amplify a fragment of DNA that codes for the intracellular tyrosine kinase domain; made in house; host or cells: SF9 insect cells (baculovirus); crude cell lysate used
The assay can be described thus: PDGF Receptor Tyrosine Kinase Assay. Particulars: glutamate-tyrosine co-polymer substrate, 50 µM ATP. The source says:
(§3) PDGF and FGF Receptor Tyrosine Kinase Assays
(§4) Full-length cDNAs for the mouse PDGF-β and human FGF-1 (flg) receptor tyrosine kinases were obtained from J. Escobedo and prepared as described in J. Biol. Chem., 1991;262:1482-1487. PCR primers were designed to amplify a fragment of DNA that codes for the intracellular tyrosine kinase domain. The fragment was inserted into a baculovirus vector, cotransfected with AcMNPV DNA, and the recombinant virus isolated. SF9 insect cells were infected with the virus to overexpress the protein, and the cell lysate was used for the assay. Assays were performed in 96-well plates (100 µL/incubation/well), and conditions were optimized to measure the incorporation of ^32P from γ^32P-ATP into a glutamate-tyrosine co-polymer substrate. Briefly, to each well was added 82.5 µL of incubation buffer containing 25 mM Hepes (pH 7.0), 150 mM NaCl, 0.1% Triton X-100, 0.2 mM PMSF, 0.2 mM Na3VO4, 10 mM MnCl2, and 750 µg/mL of Poly (4:1) glutamate-tyrosine followed by […] of inhibitor and 5 µL of enzyme lysate (7.5 µg/µL FGF-TK or 6.0 µg/µL PDGF-TK) to initiate the reaction. Following a 10 minute incubation at 25°C, 10 mL of γ^32P-ATP (0.4 µCi plus 50 µM ATP) was added to each well, and samples were incubated for an additional 10 minutes at 25°C. The reaction was terminated by the addition of 100 µL of 30% trichloroacetic acid (TCA) containing 20 mM sodium pyrophosphate and precipitation of material onto glass fiber mats (Wallac). Filters were washed three times with 15% TCA containing 100 mM sodium pyrophosphate, and the radioactivity retained on the filters counted in a Wallac 1250 Betaplate reader. Nonspecific activity was defined as radioactivity retained on the filters following incubation of samples with buffer alone (no enzyme). Specific enzymatic activity (enzyme plus buffer) was defined as total activity minus nonspecific activity. […]

Assay [4] deals with cdk4/D (Homo sapiens, UniProt P11802). Description: Cyclin-Dependent Kinase 4 (cdk4) Assay. On the procedure: A typical assay, for instance, measures inhibitory activity against the cyclin D dependent kinase 4 enzyme (cdk4/D). […] The cdk4 assay was carried out as follows.
Cyclin-Dependent Kinase 4 (cdk4) Assay
Enzyme assays for IC50 determinations (Tables 1 and 2) and kinetic evaluation were performed in 96 well filter plates (Millipore MADVN6550). The total volume was 0.1 mL containing a final concentration of 20 mM TRIS (tris[hydroxymethyl]aminomethane), at pH 7.4, 50 mM NaCl, 1 mM dithiothreitol, 10 mM MgCl2, 25 µM ATP containing 0.25 µCi of [^32P]ATP, 20 ng of cdk4, 1 µg of retinoblastoma, and appropriate dilutions of a compound of the present invention. All components except the ATP were added to the wells, and the plate was placed on a plate mixer for 2 minutes. The reaction was started by adding [^32P]ATP and the plate was incubated at 25°C for 15 minutes. The reaction was terminated by addition of 0.1 mL of 20% trichloroacetic acid (TCA). The plate was kept at 4°C for at least 1 hour to allow the substrate to precipitate. The wells were then washed five times with 0.2 mL of 10% TCA and ^32P incorporation was determined with a beta plate counter (Wallac Inc., Gaithersburg, MD).

Assay [5] deals with cdk2/cyclinA (Homo sapiens, UniProt P24941). Description: Cyclin-Dependent Kinase Assay cdk2/cyclinA. On the procedure: as §1, §2
The target in assay [6] is cdc2/cyclinB (Homo sapiens, UniProt P06493). Description: Cyclin-Dependent Kinase Assay cdc2/cyclinB. The method, then:
as §1, §2

For assay [7], the target named is T3, FGF-1 (flg) receptor tyrosine kinase (Homo sapiens, UniProt P11362).
T3 construct: amplify a fragment of DNA that codes for the intracellular tyrosine kinase domain; made in house; host or cells: SF9 insect cells (baculovirus); crude cell lysate used
Description: FGF Receptor Tyrosine Kinase Assay. Particulars: glutamate-tyrosine co-polymer substrate, 50 µM ATP. The method, then:
as §3
as §4, with “PCR” for “Full-length cDNAs for the mouse PDGF-β and human FGF-1 (flg) receptor tyrosine kinases were obtained from J. Escobedo and prepared as described in J. Biol. Chem., 1991;262:1482-1487. PCR”, “Following a 10 minute incubation at 25°C, 10 mL of γ^32P-ATP (0.4 µCi plus 50 µM ATP) was added to each well, and samples were incubated for an additional 10 minutes at 25°C.” left out, “Filters were washed three times with 15% TCA containing 100 mM sodium pyrophosphate, and the radioactivity retained on the filters counted in a Wallac 1250 Betaplate reader.” left out

Where [8] appears, read: retinoblastoma substrate, read-out: IC50 (µM) cdk2/E.
Setting [9] is: 25 µM ATP, retinoblastoma substrate, read-out: IC50 (µM) cdk4/D.
The mark [10] stands for this setting: retinoblastoma substrate, read-out: IC50 (µM) cdk2/A.
Where [11] appears, read: retinoblastoma substrate, read-out: IC50 (µM) cdkl/B.

T1 sequence (P12931 whole entry): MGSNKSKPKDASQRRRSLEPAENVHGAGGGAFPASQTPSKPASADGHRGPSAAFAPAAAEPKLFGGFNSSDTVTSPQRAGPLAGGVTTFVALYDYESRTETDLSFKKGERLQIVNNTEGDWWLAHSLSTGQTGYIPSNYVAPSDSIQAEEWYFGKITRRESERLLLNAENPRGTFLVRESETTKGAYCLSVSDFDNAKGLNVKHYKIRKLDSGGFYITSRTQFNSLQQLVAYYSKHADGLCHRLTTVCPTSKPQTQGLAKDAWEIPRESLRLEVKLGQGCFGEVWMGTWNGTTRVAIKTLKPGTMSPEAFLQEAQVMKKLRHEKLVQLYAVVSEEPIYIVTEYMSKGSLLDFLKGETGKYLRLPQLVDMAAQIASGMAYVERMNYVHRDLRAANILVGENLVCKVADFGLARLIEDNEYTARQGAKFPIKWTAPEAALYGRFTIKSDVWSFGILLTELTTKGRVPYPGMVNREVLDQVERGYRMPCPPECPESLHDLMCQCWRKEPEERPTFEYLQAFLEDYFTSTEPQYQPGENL
Sequence of cdk4/D (P11802 whole entry): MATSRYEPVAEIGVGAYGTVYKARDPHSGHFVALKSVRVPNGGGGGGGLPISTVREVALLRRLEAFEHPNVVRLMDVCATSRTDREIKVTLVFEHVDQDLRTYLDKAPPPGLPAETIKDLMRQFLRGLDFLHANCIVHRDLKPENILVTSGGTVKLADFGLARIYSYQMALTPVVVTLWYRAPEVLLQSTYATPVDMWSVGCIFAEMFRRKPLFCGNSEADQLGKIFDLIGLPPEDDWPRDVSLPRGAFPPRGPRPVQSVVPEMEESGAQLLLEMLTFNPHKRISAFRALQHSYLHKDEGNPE
Sequence of cdk4/D (P24385 whole entry, further chain): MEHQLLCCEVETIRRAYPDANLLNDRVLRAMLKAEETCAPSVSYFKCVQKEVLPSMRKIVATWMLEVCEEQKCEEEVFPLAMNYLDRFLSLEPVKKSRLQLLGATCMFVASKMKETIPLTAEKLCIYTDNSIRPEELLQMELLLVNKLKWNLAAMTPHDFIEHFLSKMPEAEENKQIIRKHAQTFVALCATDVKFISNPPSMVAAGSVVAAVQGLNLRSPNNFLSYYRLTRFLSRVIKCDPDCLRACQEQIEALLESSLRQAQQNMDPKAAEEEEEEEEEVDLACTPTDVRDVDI
Sequence of cdc2/cyclinB (P06493 whole entry): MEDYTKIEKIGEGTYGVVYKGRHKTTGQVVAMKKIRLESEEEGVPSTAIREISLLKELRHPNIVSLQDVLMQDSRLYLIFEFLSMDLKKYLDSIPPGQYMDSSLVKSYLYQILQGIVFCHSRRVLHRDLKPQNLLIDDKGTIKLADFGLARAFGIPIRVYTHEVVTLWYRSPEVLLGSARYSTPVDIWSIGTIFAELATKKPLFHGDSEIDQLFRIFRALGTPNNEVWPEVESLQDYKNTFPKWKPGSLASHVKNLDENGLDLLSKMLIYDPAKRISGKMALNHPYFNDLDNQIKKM
Sequence of cdc2/cyclinB (P14635 whole entry, further chain): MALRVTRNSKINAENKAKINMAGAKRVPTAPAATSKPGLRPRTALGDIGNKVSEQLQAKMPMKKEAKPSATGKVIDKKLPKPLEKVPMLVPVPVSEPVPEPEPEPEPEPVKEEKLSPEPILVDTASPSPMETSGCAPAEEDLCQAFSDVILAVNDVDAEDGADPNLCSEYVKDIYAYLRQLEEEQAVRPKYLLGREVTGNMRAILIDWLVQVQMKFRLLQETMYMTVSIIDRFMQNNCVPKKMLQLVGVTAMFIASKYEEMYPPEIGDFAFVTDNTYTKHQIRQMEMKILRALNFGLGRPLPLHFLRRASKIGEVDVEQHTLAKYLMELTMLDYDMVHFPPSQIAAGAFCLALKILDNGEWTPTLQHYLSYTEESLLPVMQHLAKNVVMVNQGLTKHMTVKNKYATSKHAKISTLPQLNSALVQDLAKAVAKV
T2 sequence (P05622 599-961 limits assumed): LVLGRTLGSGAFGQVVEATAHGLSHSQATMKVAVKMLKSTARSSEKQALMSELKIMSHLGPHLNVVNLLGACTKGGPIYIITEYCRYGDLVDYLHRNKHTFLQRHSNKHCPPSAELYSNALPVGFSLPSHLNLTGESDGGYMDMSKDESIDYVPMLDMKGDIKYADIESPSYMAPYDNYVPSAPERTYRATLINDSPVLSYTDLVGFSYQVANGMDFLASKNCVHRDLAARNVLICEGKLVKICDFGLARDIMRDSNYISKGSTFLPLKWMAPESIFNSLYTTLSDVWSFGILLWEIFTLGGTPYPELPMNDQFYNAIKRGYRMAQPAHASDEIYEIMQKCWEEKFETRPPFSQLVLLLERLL
T3 sequence (P11362 478-767 limits assumed): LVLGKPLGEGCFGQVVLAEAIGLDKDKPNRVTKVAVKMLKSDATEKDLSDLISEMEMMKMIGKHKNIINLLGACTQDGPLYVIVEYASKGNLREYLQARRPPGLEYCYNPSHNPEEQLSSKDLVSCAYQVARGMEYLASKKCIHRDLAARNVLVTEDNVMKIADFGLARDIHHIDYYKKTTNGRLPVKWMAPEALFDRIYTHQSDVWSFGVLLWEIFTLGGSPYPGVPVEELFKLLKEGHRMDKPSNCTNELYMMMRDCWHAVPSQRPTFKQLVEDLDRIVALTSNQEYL

For the molecule `O=c1ncc2cnc(Nc3ccc(N4CCC(CCN5CCOCC5)CC4)cc3)nc2n1C1CCCC1` [Example 39], the IC50 is 3.23 µM in assay [1]; 1.85 µM in assay [2]; 3.76 µM in assay [3]; 0.3 µM in assay [4]; 1.44 µM in assay [5]; 24.6 µM in assay [6].

On to `CCN(CC)CCOc1ccc(Nc2ncc3c(n2)N(CC)C(=O)N(c2cc(OC)cc(OC)c2)C3)cc1` [Example 53a, 7-[4-(2-Diethylamino-ethoxy)-phenylamino]-3-(3,5-dimethoxy-phenyl)-1-ethyl-3,4-dihydro-pyrimido[4,5-d]pyrimidin-2(1H)-one], for which the IC50 in assay [3] is less than 0.5 µM; in assay [7], 0.02 µM.

Consider `CC1CN(c2ccc(Nc3ncc4c(n3)N(C3CCCC3)C(=O)NC4)cc2)CC(C)N1` (centres unmarked) [Example 18, 1-Cyclopentyl-7-[4-(3,5-dimethylpiperazin-1-yl)phenylamino]-3,4-dihydropyrimido[4,5-d]pyrimidin-2(1H)-one], for which the IC50 was determined as 0.4 µM in assay [1], 2 µM in assay [2], 0.21 µM in assay [3] and 0.35 µM in assay [4].

For the molecule `O=c1ncc2cnc(Nc3ccc(N4CCCC(O)C4)cc3)nc2n1C1CCCC1` (centres unmarked) [Example 35, 1-Cyclopentyl-7-[4-(3-hydroxypiperidin-1-yl)phenylamino]pyrimido[4,5-d]-pyrimidin-2(1H)-one], the IC50 was determined as 4.65 µM in assay [1]; 1.05 µM in assay [2]; 2.8 µM in assay [3]; 0.082 µM in assay [4]; 3.49 µM in assay [7]; 0.99 µM in assay [5]. In assay [6], the IC50 was found to be 8.54 µM.

Regarding `C=CCn1c(=O)c2cnc(Nc3ccc(N4CCN(C)CC4)cc3)nc2n(C(C)C)c1=O` [Example 70, 3-Allyl-1-isopropyl-7-[4-(4-methylpiperazin-1-yl)phenylamino]-1H-pyrimido[4,5-d]pyrimidine-2,4-dione], the IC50 in assay [3] was more than 50 µM; in assay [4], 3.45 µM; in assay [7], more than 50 µM; in assay [5] it was more than 40 µM; in assay [6], more than 40 µM.

With `CN1CCN(c2ccc(Nc3ncc4c(n3)N(C3CCCC3)C(=O)NC4)cc2)CC1` [Example 11, 1-Cyclopentyl-7-[4-(4-methylpiperazin-1-yl)phenylamino]-3,4-dihydropyrimido[4,5-d]pyrimidin-2(1H)-one], the IC50 in assay [1] is 0.71 µM; in assay [2] (setting [8]) it was 2.12 µM; in assay [3] it was 0.175 µM; in assay [4] (setting [9]), 0.039 µM; in assay [7] it was 0.023 µM; in assay [5] (setting [10]), 0.76 µM. Moreover, in assay [6] (setting [11]), the IC50 came out at 11.6 µM.

Consider `CN1CCN(c2ccc(Nc3ncc4cnc(=O)n(C5CCCC5)c4n3)cc2)CC1` [Example 32, 1-Cyclopentyl-7-[4-(4-methylpiperazin-1-yl)phenylamino]pyrimido-[4,5-d]pyrimidin-2(1H)-one], for which the IC50 in assay [1] worked out at 3.95 µM; in assay [2] (setting [8]), 1.38 µM; in assay [3], 1.63 µM; in assay [4] (setting [9]) it was 0.05 µM; in assay [7], 0.37 µM; in assay [5] (setting [10]), 0.83 µM. Besides, in assay [6] (setting [11]), the IC50 worked out at 7.51 µM.

In the case of `CC(C)n1c(=O)ncc2cnc(Nc3ccc(N4CCC(N(C)C)CC4)cc3)nc21` [Example 41, 7-{4-[4-(Dimethylamino)piperidin-1-yl]phenylamino}-1-isopropyl-pyrimido[4,5-d]pyrimidin-2(1H)-one], the IC50 in assay [1] was 3.06 µM; in assay [2], more than 40 µM; in assay [3], more than 50 µM; in assay [7] it was 11.7 µM; in assay [5], 14.8 µM; in assay [6], more than 40 µM.

Take `O=c1ncc2cnc(Nc3ccc(-n4cccn4)cc3)nc2n1C1CCCC1` [Example 36, 1-Cyclopentyl-7-[4-(pyrazol-1-yl)phenylamino]pyrimido[4,5-d]pyrimidin-2(1H)-one]: the IC50 was 2.44 µM in assay [2]; more than 50 µM in assay [3]; 0.435 µM in assay [4]; more than 50 µM in assay [7]; 1.33 µM in assay [5]; 16.1 µM in assay [6].

As to `O=C1NCc2cnc(Nc3ccc(N4CCCC(O)C4)cc3)nc2N1C1CCCC1` (centres unmarked) [Example 16, 1-Cyclopentyl-7-[4-(3-hydroxypiperidin-1-yl)phenylamino]-3,4-dihydropyrimido[4,5-d]pyrimidin-2(1H)-one], the IC50 in assay [1] was 4.12 µM; in assay [2], 1.5 µM; in assay [3], 0.83 µM; in assay [4] it was 0.63 µM; in assay [5], 0.64 µM; in assay [6], 14.9 µM.
